Three molecules from ChEMBL document CHEMBL4138057, “Structure-guided optimization of quinoline inhibitors of Plasmodium N-myristoyltransferase” (Medchemcomm, 2017) can be followed below.

pKi: −log10 of the molar value.

The target of the experiment is T1, Glycylpeptide N-tetradecanoyltransferase (Plasmodium falciparum (isolate 3D7), UniProt Q8ILW6).
T1 sequence (Q8ILW6 whole entry): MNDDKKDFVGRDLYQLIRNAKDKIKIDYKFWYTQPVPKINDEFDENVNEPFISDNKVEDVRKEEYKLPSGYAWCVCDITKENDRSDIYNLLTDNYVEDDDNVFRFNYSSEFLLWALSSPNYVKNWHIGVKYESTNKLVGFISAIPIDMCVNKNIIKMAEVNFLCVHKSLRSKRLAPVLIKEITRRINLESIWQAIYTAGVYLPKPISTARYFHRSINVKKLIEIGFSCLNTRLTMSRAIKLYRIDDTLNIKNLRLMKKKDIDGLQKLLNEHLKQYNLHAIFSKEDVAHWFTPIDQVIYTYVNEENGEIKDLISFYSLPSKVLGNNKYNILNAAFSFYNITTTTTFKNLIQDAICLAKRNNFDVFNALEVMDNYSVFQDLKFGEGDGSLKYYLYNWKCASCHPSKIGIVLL
Description: Inhibition of Plasmodium falciparum NMT preincubated for 10 to 20 mins followed by Hs pp60src (2 to 16 residues) substrate addition measured after 60 mins by CPM-based fluorescence assay. The following applies: read-out: Ki(app).
Regarding `CCOC(=O)c1cnc2ccc(OCc3ccccc3)cc2c1SCCC#N`, the pKi – broadly, the Ki on a negative log10 scale, so that one unit is a factor of ten – was below 5.00.
For `CCOC(=O)c1cnc2ccc(OCc3ccccc3)cc2c1S(=O)(=O)CC`, the pKi is below 5.00.
For `CCSc1c(CO)cnc2ccc(OCc3ccccc3)cc12` the value was below 5.00.
